The test system of one data set is A431 cells. Description: Immunoblotting of EMT markers in A431 cells. It counts as cell-based. On the procedure:
(1) A431 cells, (epidermoid carcinoma), A549 cells (adenocarcinomic human alveolar basal epithelial cell) and HCT116 cells (human colon cancer) were treated with IBS008738 or DMSO, respectively, and evaluated by immunoblotting.
HEK293, A431, A549, HCT116, MCF7 and SW480 cells were cultured in Dulbecco's Modified Eagle Medium (DMEM) containing 10% fetal bovine serum (FBS), 10 mM HEPES-NaOH at pH 7.4, 100 U/ml penicillin and 100 mg/I streptomycin under 5% CO2 at 37° C.

In the next data set the test system is calpain 1. Description: Quantitative real-time PCR, calpain 1. To be noted: C2C12 cells, 10 μM; for Normarized mRNA abundance, Calpain1: listed as IBS008738. It counts as cell-based, mouse. On the procedure:
(§1) (1) Quantitative real-time PCR was performed with C2C12 cells immediately before the induction of muscle formation (0 h), and after culturing under differentiation condition in a culture medium added with IBS008738 or DMSO at a concentration of 10 μM for 24 hours (24 h) and 72 hours (72 h), respectively. […] The line and error bar indicate the average value and the standard error, **p<0.05, and ns refers to not significant.
Evaluation was also performed under the same condition on M-cadherin, calpain 1 and caveolin 3, which are myofusion markers. As a result, there was no increase in the degree of gene transcription in the case with IBS008738.
(§2) The quantitative real-time PCR was performed with SYBER Green (Roche) and ABI7500 Realtime PCR system (Applied Biosystems).

The test system of the next data set is MyoD reporter. Put plainly: Luciferase reporter assay, MyoD reporter. It counts as cell-based. The following applies: Mus musculus, C2C12, 24 h, C2C12 cells expressing reporter and TAZ WT, differentiation medium 24 hours. As for the experimental part: The effect and its degree on the activity of a reporter, derived from a transcription factor that interacts with TAZ in C2C12 cells, were evaluated. Specifically, C2C12 cells expressing luciferase reporters corresponding to MyoD, TEAD, SMAD and Pax3 and C2C12 cells expressing these luciferase reporters and TAZ were cultured in a culture medium added with IBS008738 or DMSO at a concentration of 10 μM, respectively. […] The line and the error bar indicate the average value and the standard error, *p<0.05, **p<0.01, ns refers to not significant.
Transfection of the luciferase reporters was performed to the C2C12 cells after being plated at 12-well plates (1×10^5 cells/well) and cultured overnight. As the luciferase reporters, pGL3 Myo-184- (MyoD-), 8×GT-IIC-δ51LucII- (TEAD-), 9×CAGA-MLP-(SMAD-), and p(PRS-1/-4)3- (Pax3-) were transfected to the cells alone or with TAZ. These reporter vectors were from Keiji Miyazawa (Yamanashi University), Hiroshi Sasaki (Kumamoto University) and Hiroki Kurihara (The University of Tokyo).
Immediately after the transfection, DMSO or IBS008738 was added at a concentration of 10 μM, respectively. After growing the cells to confluence, the cells were transferred to a differentiation medium with DMSO or IBS008738, and cultured for 24 hours before the luciferase assay.

For another data set, the system named is C2C12 cells. Description: Proliferation of C2C12 cells by MTT method. It is filed as cell-based, mouse. The following applies: for Relative cell proliferation: growth condition, day 1 as 1. As for the experimental part: In order to examine whether IBS008738 as an effect on the proliferation of cells, C2C12 cells were cultured under growth condition for 5 days in a medium added with IBS008738 at 0 μM (not added), 0.1 μM, 1 μM and 10 μM, respectively, and the number of the cells was counted each day by MTT (3-(4, 5-dimethylthiazol-2-yl)-2, 5-diphenyl tetrazolium bromide) method. The counting was performed three times, and the obtained numbers were relativized with the number of day 1 as 1.

The next data set relates to TAZ. Description: Localization of TAZ in the cell by cell fraction. It counts as cell-based, mouse. To be noted: C2C12 cells, 24 hours under differentiation condition. As for the experimental part: Phosphorylation of TAZ and its localization in the cell are important factors in controlling the activity of TAZ. The localization of TAZ in the cell was examined by performing cell fraction of C2C12 cells after being cultured for 24 hours under differentiation condition in a medium added with IBS008738 or DMSO.

Data set [1] relates to binding of MyoD to myogenin promoter. Put plainly: Chromatin immunoprecipitation, MyoD on myogenin promoter. It counts as cell-based, mouse. To be noted: C2C12 cells; 10 μM; differentiation condition 24 hours; protein G sepharose without antibody; listed as IBS008738. As for the experimental part:
(§3) (1) Chromatin immunoprecipitation of MyoD, TEAD and Pax3 was performed on C2C12 cells that were cultured under differentiation condition for 24 hours in a culture medium added with IBS008738 or DMSO at a concentration of 10 μM. Myogenin, connective tissue growth factor (CTGF) and MyfS were detected by PCR, respectively. The immunoprecipitation with protein G sepharose was used as a control (Mock ChIP). […] The line and the error bar in the figure indicate the average value and the standard error, *p<0.05, ***p<0.001, ns refers to not significant.
(§4) The Chromatin immunoprecipitation was performed according to the following process. C2C12 cells were cultured to confluence, and then treated with IBS008738 or DMSO at a concentration of 10 μM in a differentiation medium for 24 hours. The cells were crosslinked in 1.42% (v/v) formaldehyde for 15 minutes, and the reaction was quenched by treating with 125 mM glycine for 5 minutes. […] Shearing was analyzed by agarose gel electrophoresis. […] The immunoprecipitated DNA fragments were isolated using Chelex-100 resin and diluted by 1:2.5 for quantitative PCR analysis. Input normalized relative abundance was determined.

A further data set deals with cyclin D1. Put plainly: Quantitative real-time PCR, cyclin D1. It counts as cell-based, mouse. The following applies: C2C12 cells, 10 μM; for Normarized mRNA abundance, CyclinD1: listed as IBS008738. As for the experimental part: as §1
(2) Evaluation was also performed under the same condition on the connective tissue growth factor (CTGF) and cyclin D1, as TAZ targets in epidermal cells.
as §2

Data set [2] relates to association of TEAD with CTGF. Description: Chromatin immunoprecipitation, TEAD on CTGF promoter. To be noted: C2C12 cells; 10 μM; differentiation condition 24 hours; protein G sepharose without antibody; listed as IBS008738. It is filed as cell-based, mouse. On the procedure:
as §3, §4

The record followed here is patent publication US10653672B2, “Myogenesis promotor, muscle atrophy inhibitor, medical composition and TAZ activator” (National University Corporation Tokyo Medical and Dental …, priority 2014, dated 2020).

Several values for one entry are separate records, joined by “and”; a condition that tells them apart may be missing. Equal values may be shown once.

Turning to `Cc1ccc(-n2cnc(/N=C/N3CCOCC3)c2C(=O)c2ccccc2)cc1` [exemplary compound 1], the “EMT markers (fibronectin, E-cadherin, N-cadherin and vimentin) compared with DMSO” value with A431 cells is listed as “no significant difference”. In addition, the “degree of gene transcription of calpain 1” value in the data set on calpain 1 (24 h and 72 h) is listed as “no increase”. Besides, the “Normarized mRNA abundance, Calpain1” value is 0.84 and 0.81 and 0.98 in the data set on calpain 1 (differentiation condition 24 h); 1.15 and 1.18 and 1.22 with calpain 1 (differentiation condition 72 h). This compound also displayed a fold induction at 10 µM in the data set with MyoD reporter of 6.92. In the data set with C2C12 cells (0.1 μM, 1 μM and 10 μM, 5 days), the “effect on the proliferation of C2C12 cells” value is listed as “does not have an effect”. The Relative cell proliferation was 1.00 with C2C12 cells (0.1 μM, 24 h); 2.09 and 2.06 and 2.18 in the data set on C2C12 cells (0.1 μM, 48 h, listed as IBS008738); 5.37 and 4.74 and 4.59 in the data set with C2C12 cells (0.1 μM, 72 h, listed as IBS008738); 9.01 and 8.76 and 8.78 in the data set on C2C12 cells (0.1 μM, 120 h, listed as IBS008738); 1.00 with C2C12 cells (1 μM, 24 h); 2.41 and 2.05 and 2.07 in the data set with C2C12 cells (1 μM, 48 h, listed as IBS008738). For the same compound, the Relative cell proliferation is 5.11 and 4.54 and 4.46 in the data set on C2C12 cells (1 μM, 72 h, listed as IBS008738); 9.13 and 8.80 and 8.79 with C2C12 cells (1 μM, 120 h, listed as IBS008738); 1.00 in the data set with C2C12 cells (10 μM, 24 h); 2.09 and 2.07 in the data set on C2C12 cells (10 μM, 48 h, listed as IBS008738); 4.70 and 4.90 and 4.92 with C2C12 cells (10 μM, 72 h, listed as IBS008738); 8.63 and 8.99 and 8.56 in the data set on C2C12 cells (10 μM, 120 h, listed as IBS008738). In addition, in the data set with TAZ, the “effect on the localization of TAZ in the cell” value is recorded as “no effect”. In data set [1], the “Input %, myogenin-p, Mock ChIP” value is 0.05% and 0.08%. In addition, the “gene transcription of cyclin D1 compared with DMSO” value with cyclin D1 (24 h and 72 h) is recorded as “no significant difference”. The “Normarized mRNA abundance, CyclinD1” value in the data set on cyclin D1 (differentiation condition 24 h) is 0.95 and 0.83 and 0.78; with cyclin D1 (differentiation condition 72 h), 0.62 and 0.60 and 0.61. For the same compound, the “Input %, CTGF-p, Mock ChIP” value in data set [2] is 0.06% and 0.04%.
